Reference: patent US20120022116A1, “COMPOSITIONS AND METHODS FOR THE TREATMENT OF PATHOLOGICAL CONDITION(S) RELATED TO GPR35 AND/OR GPR35-HERG COMPLEX” (priority 2010, published 2012)
Entries after “also recorded” stand apart in the source; their conditions may differ. Like-named read-outs stand apart in the source and are kept apart here.

Legend:
hERG channel = hERG channel (Homo sapiens, UniProt Q12809); assay: Automated patch clamp recording of hERG tail current (IonWorks); settings: hERG tail current ratio post/pre-compound, 50 uM
Sequence of hERG channel (Q12809 whole entry): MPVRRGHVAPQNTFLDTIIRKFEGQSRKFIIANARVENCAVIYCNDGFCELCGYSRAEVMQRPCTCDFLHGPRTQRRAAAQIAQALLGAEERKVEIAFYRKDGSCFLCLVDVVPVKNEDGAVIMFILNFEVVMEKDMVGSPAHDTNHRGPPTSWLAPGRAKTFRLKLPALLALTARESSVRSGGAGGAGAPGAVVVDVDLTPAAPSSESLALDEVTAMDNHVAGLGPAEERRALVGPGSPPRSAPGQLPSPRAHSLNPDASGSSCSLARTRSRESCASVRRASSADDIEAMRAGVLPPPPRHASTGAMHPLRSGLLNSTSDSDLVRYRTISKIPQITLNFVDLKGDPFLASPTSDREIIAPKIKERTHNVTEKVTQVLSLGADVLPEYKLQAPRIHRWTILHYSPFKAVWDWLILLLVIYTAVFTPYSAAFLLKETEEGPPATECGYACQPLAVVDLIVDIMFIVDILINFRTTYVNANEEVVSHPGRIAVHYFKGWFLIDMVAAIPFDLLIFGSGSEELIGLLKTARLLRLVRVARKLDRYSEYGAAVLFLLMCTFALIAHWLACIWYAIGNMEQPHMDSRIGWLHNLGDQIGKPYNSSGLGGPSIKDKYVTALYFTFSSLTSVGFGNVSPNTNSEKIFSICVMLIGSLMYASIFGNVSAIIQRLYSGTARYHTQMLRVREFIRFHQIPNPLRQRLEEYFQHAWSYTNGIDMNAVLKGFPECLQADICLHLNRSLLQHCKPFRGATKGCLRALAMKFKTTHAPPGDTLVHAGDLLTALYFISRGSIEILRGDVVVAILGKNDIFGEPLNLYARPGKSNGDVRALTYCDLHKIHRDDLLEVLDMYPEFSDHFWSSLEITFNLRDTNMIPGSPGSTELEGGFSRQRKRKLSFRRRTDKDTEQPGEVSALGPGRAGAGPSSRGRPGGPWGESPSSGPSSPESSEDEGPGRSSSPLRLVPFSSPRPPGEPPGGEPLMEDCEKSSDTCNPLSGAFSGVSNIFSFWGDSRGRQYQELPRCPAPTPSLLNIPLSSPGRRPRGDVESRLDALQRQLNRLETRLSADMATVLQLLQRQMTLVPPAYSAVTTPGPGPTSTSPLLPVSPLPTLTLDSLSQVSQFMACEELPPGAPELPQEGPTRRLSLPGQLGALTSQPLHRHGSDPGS

GPR35 [1] = assay: DMR desensitization / antagonism mode against GPR35 agonist-induced DMR in HT29 cells; format: cell-based, human
GPR35 [2] = target: T1, GPR35 (Homo sapiens, UniProt Q9HC97); assay: Ca2+ mobilization assay (Fluo-4) in HEK-GPR35-Gqo5 cells; format: cell-based; settings: for Ca2+ moblization (HEK-GPR35-Gqo5): HEK293 cells co-expressing GPR35 and Gqo5, Fluo-4, compounds 10 μM; for Ca2+ mobilization signal in cells co-expressing GPR35 and Gqo5: engineered HEK293, 10 μM
T1 construct: myc; expressed in transfected cells; host or cells: HEK293, transient co-transfection (Lipofectamine LTX)
T1 sequence (Q9HC97 whole entry): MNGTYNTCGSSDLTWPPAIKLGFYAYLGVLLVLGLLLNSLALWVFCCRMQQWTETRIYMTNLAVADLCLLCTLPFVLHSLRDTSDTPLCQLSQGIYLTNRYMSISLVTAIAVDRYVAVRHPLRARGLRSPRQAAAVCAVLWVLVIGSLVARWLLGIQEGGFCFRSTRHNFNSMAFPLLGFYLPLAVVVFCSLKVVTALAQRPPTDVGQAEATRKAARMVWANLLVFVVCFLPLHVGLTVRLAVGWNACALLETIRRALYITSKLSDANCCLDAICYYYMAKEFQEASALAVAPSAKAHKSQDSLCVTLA

[3] = HT29 cells pretreated with compound, then GPR35 agonist
[4] = HT29, zaprinast 400 nM, U73122, cytochalasin D, Y27632 10 micromolar, CTX 1 microgram/ml, PTX 100 nanogram/ml

Sequence of GPR35 (Q9HC97 whole entry): as above

Compound | Electrophysiology (HEK-hERG) (hERG channel) | Desenstization to GPR35 agonist (GPR35 [1]; [3]) | Ca2+ moblization (HEK-GPR35-Gqo5) (GPR35 [2]) | other results
N#CC(=Cc1ccc2[nH]ccc2c1)C(N)=C(C#N)C#N [AG370] | inactive | desenstized | – | –
CC1=C(C#N)C(=C(C#N)C#N)OC1(C)c1c(F)c(F)c(F)c(F)c1F (stereo not drawn) [Compound 09, 2-dicyanomethylene-3-cyano-4,5-dimethyl-5-[2′3′4′5′6′-pentafluorophenyl]-2,5-dihydrofuran] | inactive | desenstized | active | –
CCOC(=O)c1cc2sc3cc(C(=O)OCC)sc3c2s1 [Compound 23, diethyl dithieno[3,2-b:2′,3′-d]thiophene-2,6-dicarboxylate] | inactive | desenstized | inactive | –
CC1=C(C#N)C(=C(C#N)C#N)OC1(C)c1ccc(F)cc1F (stereo not drawn) [Compound 02, 2-dicyanomethylene-3-cyano-4,5-dimethyl-5-[2′,4′-difluorophenyl]-2,5-dihydrofuran] | inactive | desenstized | active | –
C[C@@H](N)[C@H]1CC[C@H](C(=O)Nc2ccncc2)CC1 [Compound Y27632, Y27632] | – | – | – | effect of pathway agent pretreatment on the zaprinast DMR signal (GPR35 [1]; [4]): partially attenuated; effect of pathway agent on the 6-bromo-3-methylthieno[3,2-b]thiophene-2-carboxylic acid DMR (GPR35 [1]; HT29 cells): partially attenuated
CC1=C(C#N)C(=C(C#N)C#N)OC12CCCCC2 [Compound 03, 2-dicyanomethylene-3-cyano-4-methyl-5-spiro-cyclohexyl-2,5-dihydrofuran] | inactive | desenstized | inactive | –
O=C(O)c1cc(-c2ccc(F)cc2F)ccc1O [Diflunisal] | activator | desenstized | active | Ca2+ mobilization signal in cells co-expressing GPR35 and Gqo5 (GPR35 [2]): active
CC1=C(C#N)C(=C(C#N)C#N)OC1(c1ccccc1)C(F)(F)F (stereo not drawn) [Compound 04, 2-dicyanomethylene-3-cyano-4-methyl-5-phenyl-5-perfluoromethyl-2,5-dihydrofuran] | activator | desenstized | active | –
N#CC(C#N)=C(N)/C(C#N)=C/c1ccc(O)cc1 [AG112] | – | desenstized | – | –
CCCCCCCCc1c(C(=O)O)sc2c(Br)csc12 [Compound 21, 3-n-octyl-6-bromo-thieno[3,2-b]thiophene-2-carboxylic acid] | activator | desenstized | active | –
cholera toxin | – | – | – | effect of pathway agent on the 6-bromo-3-methylthieno[3,2-b]thiophene-2-carboxylic acid DMR (GPR35 [1]): insensitive; effect of pathway agent pretreatment on the zaprinast DMR signal (GPR35 [1]): insensitive
O=C(O)c1cc(=O)c2ccccc2[nH]1 [Kynurenic acid] | inactive | desenstized | inactive | –
N#CC(C#N)=Cc1ccc([N+](=O)[O-])c(O)c1 [AG126] | inactive | desenstized | – | –
O=C(O)c1cccnc1Nc1cccc(C(F)(F)F)c1 [Niflumic acid] | activator | desenstized | active | Ca2+ mobilization signal in cells co-expressing GPR35 and Gqo5 (GPR35 [2]): active
Cc1c(C(=O)O)sc2ccsc12 [Compound 12, 3-methyl-thieno[3,2-b]thiophene-2-carboxylic acid] | inactive | desenstized | active | –
N#CC(C#N)=Cc1cc(O)c(O)c(O)c1 [Tyrphostin 25] | inactive | desenstized | – | –
O=C(O)c1cc(/N=N/c2ccc(S(=O)(=O)Nc3ccccn3)cc2)ccc1O [Sulfasalazine] | inactive | desenstized | inactive | –
OCCN(CCO)c1ccc(C=Cc2cccs2)cc1 [Compound 24, N,N-bis(2-hydroxyethyl)-4-[2-(thiophene-2-yl)vinyl]aniline] | inactive | inactive | inactive | –
O=C(O)c1ccccc1Nc1ccccc1 [N-phenylanthranilic] | – | desenstized | – | –
Cc1c(Nc2ncccc2C(=O)O)cccc1C(F)(F)F [Flunixin] | activator | desenstized | active | Ca2+ mobilization signal in cells co-expressing GPR35 and Gqo5 (GPR35 [2]): active
COc1ccc2c(c1)CC[C@@H]1[C@@H]2CC[C@]2(C)[C@@H](NCCCCCCN3C(=O)C=CC3=O)CC[C@@H]12 [Compound U73122, U73122] | – | – | – | effect of pathway agent pretreatment on the zaprinast DMR signal (GPR35 [1]; [4]): insensitive; effect of pathway agent on the 6-bromo-3-methylthieno[3,2-b]thiophene-2-carboxylic acid DMR (GPR35 [1]; HT29 cells): insensitive
Pertussis toxin | – | – | – | effect of pathway agent pretreatment on the zaprinast DMR signal (GPR35 [1]; [4]): insensitive; effect of pathway agent on the 6-bromo-3-methylthieno[3,2-b]thiophene-2-carboxylic acid DMR (GPR35 [1]; HT29 cells): insensitive

Compound | Electrophysiology (HEK-hERG) (hERG channel) | Desenstization to GPR35 agonist (GPR35 [1]; [3]) | Ca2+ moblization (HEK-GPR35-Gqo5) (GPR35 [2]) | other results
CC1=C(C#N)C(=C(C#N)C#N)OC12c1ccccc1-c1ccccc12 [Compound 05, 2-dicyanomethylene-3-cyano-4-methyl-5-spiro-fluorenylidine-2,5-dihydrofuran] | inactive | desenstized | inactive | –
COc1cc(/C=C(\C#N)C(N)=O)cc(CSc2nc3ccccc3s2)c1O [AG825] | – | desenstized | – | –
O=Cc1ccc(-c2cccs2)s1 [Compound 30, 2,2′-bithiophene-5-carboxaldehyde] | blocker | desenstized | inactive | –
CCCCc1ccc(C2(C)OC(=C(C#N)C#N)C(C#N)=C2C)cc1 (stereo not drawn) [Compound 01, 2-dicyanomethylene-3-cyano-4,5-dimethyl-5-[4′-n-butylphenyl]-2,5-dihydrofuran] | inactive | desenstized | inactive | –
O=C(O)Cc1ccccc1Nc1c(Cl)cccc1Cl [Diclofenac] | – | desenstized | inactive | –
NS(=O)(=O)c1cc(C(=O)O)c(NCc2ccco2)cc1Cl [Furosemdie] | – | desenstized | active | Ca2+ mobilization signal in cells co-expressing GPR35 and Gqo5 (GPR35 [2]): active
O=Cc1ccc(-c2ccc(CO)s2)s1 [Compound 28, 5-hydroxymethyl-5′-formyl-2,2′-bithiophene] | inactive | desenstized | inactive | –
CCCCCCc1csc2cc(C(=O)O)sc12 [Compound 14, 6-hexyl-thieno[3,2-b]thiophene-2-carboxylic acid] | blocker | desenstized | active | –
O=C(O)c1ccccc1Nc1ccc(CCc2ccc(Cl)c(Cl)c2)cc1 [PD-118057] | activator | desenstized | – | –
CCCCCCCCCCCCCCCc1c(C(=O)O)sc2c(Br)csc12 [Compound 19, 3-n-pentadecyl-6-bromo-thieno[3,2-b]thiophene-2-carboxylic acid] | activator | desenstized | – | –
CCN(CC)C(=O)/C(C#N)=C/c1cc(O)c(O)c([N+](=O)[O-])c1 [Entacapone] | inactive | – | – | –
CCNc1nc(C)nc2c1cnn2-c1ccc(C)cc1 [NSC1619] | activator | inactive | – | –
N#CC(C#N)=Cc1cc(O)c(O)c([N+](=O)[O-])c1 [AG1288] | – | desenstized | – | –
CCCCCCCCCCCCCc1c(C(=O)O)sc2c(Br)csc12 [Compound 17, 3-n-tridecyl-6-bromo-thieno[3,2-b]thiophene-2-carboxylic acid] | activator | – | – | Desenstization to GPR35 agonist (GPR35 [1]): desenstized
CC(C)(C)c1cc(C=C(C#N)C#N)cc(Br)c1O [AG1024] | – | desenstized | – | –
CCCCCCCCCCc1c(C(=O)O)sc2c(Br)csc12 [Compound 18, 3-n-decyl-6-bromo-thieno[3,2-b]thiophene-2-carboxylic acid] | activator | desenstized | – | –
N#CC(C#N)=Cc1ccc(O)c(O)c1 [Tyrphostin 23] | – | desenstized | – | –
N#C/C(=C/c1ccc(O)c(O)c1)C(=O)NCc1ccccc1 [AG490] | – | desenstized | – | –
CCCCCCCCCCC(=O)c1sc2c(Br)csc2c1Br [Compound 15, 3,6-dibromo-thieno[3,2-b]thiophene-2-undecanone] | inactive | – | – | –
CCCCCCCCCCCc1c(C(=O)O)sc2c(Br)csc12 [Compound 16, 3-n-undecyl-6-bromo-thieno[3,2-b]thiophene-2-carboxylic acid] | inactive | – | – | Desenstization to GPR35 agonist (GPR35 [1]): desenstized
C=C1[C@@H](C)[C@H]2[C@H](Cc3ccccc3)NC(=O)[C@]23[C@H](OC(C)=O)/C=C/[C@@](C)(O)C(=O)[C@@H](C)C/C=C/[C@H]3[C@@H]1O [cytochalasin D] | – | – | – | effect of pathway agent pretreatment on the zaprinast DMR signal (GPR35 [1]; [4]): completely attenuated; also recorded: completely block; effect of pathway agent on the 6-bromo-3-methylthieno[3,2-b]thiophene-2-carboxylic acid DMR (GPR35 [1]; HT29 cells): blocked
